Structures can show the parent of a compound that is named as a salt. Where two headings read alike, the source gives them in different places.
Legend:
[1] = system: p53 signaling (p53RE-bla HCT-116 cells); assay: cells; format: cell-based
[2] = system: p53 signaling (p53RE-bla HCT-116 cells)
[3] = system: p53 signaling (p53RE-bla HCT-116 cells); remark: listed apart in the source
[4] = system: p53RE-bla HCT-116 cells
[5] = system: p53RE-bla HCT-116 cells; assay: cells; conditions: Homo sapiens
[6] = Homo sapiens, HCT-116, read-out: p53 activation EC50, cherry pick confirmation
[7] = Homo sapiens, HCT-116, read-out: p53 activation EC50, primary screening
[8] = Homo sapiens, HCT-116, read-out: p53 activation efficacy, cherry pick confirmation
[9] = Homo sapiens, HCT-116, read-out: p53 activation efficacy, primary screening
[10] = HCT-116, read-out: Viability EC50, cherry pick confirmation

Structure (SMILES) | EC50 [1, 6] | EC50 [1, 7] | Emax [1, 8] | Emax [1, 9] | p53 activation EC50, cherry pick confirmation [2] | p53 activation EC50, primary screening [2] | p53 activation efficacy, cherry pick confirmation [2] | p53 activation efficacy, primary screening [2] | p53 activation EC50, cherry pick confirmation [3] | p53 activation EC50, primary screening [3] | p53 activation efficacy, cherry pick confirmation [3] | p53 activation efficacy, primary screening [3] | Viability EC50, cherry pick confirmation [4] | Viability EC50, primary screening [4] | EC50 [5, 10] | also measured
CC[C@@]1(O)C(=O)OCc2c1cc1n(c2=O)Cc2cc3c(CN(C)C)c(O)ccc3nc2-1 [Topotecan hydrochloride] | – | – | – | – | – | – | – | – | – | – | – | – | – | – | – | EC50 ([1]; Homo sapiens, HCT-116, read-out: EC50, p53 activation, cherry pick confirmation): 589 nM; EC50 ([1]; Homo sapiens, HCT-116, read-out: EC50, p53 activation, primary screening): 77.1 nM; Emax ([1]; Homo sapiens, HCT-116, read-out: Efficacy, p53 activation, cherry pick confirmation): 179%; Emax ([1]; Homo sapiens, HCT-116, read-out: Efficacy, p53 activation, primary screening): 69.5%; EC50, p53 activation, cherry pick confirmation [2]: inactive; EC50, p53 activation, primary screening [2]: inactive; Efficacy, p53 activation, cherry pick confirmation [2]: inactive; Efficacy, p53 activation, primary screening [2]: inactive; EC50, p53 activation, cherry pick confirmation [3]: inactive; EC50, p53 activation, primary screening [3]: inactive; Efficacy, p53 activation, cherry pick confirmation [3]: inactive; Efficacy, p53 activation, primary screening [3]: inactive; EC50, viability, cherry pick confirmation [4]: inactive; EC50, viability, primary screening [4]: inactive; Efficacy, viability, primary screening [4]: inactive; EC50 ([5]; HCT-116, read-out: EC50, viability, cherry pick confirmation): 3980 nM
CC(C)=CCC1=C(O)C(=O)c2ccccc2C1=O [Lapachol] | – | – | – | – | – | – | – | – | – | – | – | – | – | – | – | p53 activation efficacy [1]: 104.839; EC50 ([1]; read-out: p53 activation EC50): 3380 nM; p53 activation EC50 [2]: inactive; p53 activation EC50 [3]: inactive; Viability EC50 [4]: inactive; EC50 ([5]; HCT-116, read-out: Viability EC50): 1380 nM
CC(C)C[C@H](NC(=O)[C@H](Cc1ccccc1)NC(=O)c1cnccn1)B(O)O [Bortezomib] | 101 nM | 12.2 nM | 134% | 104% | inactive | inactive | inactive | inactive | inactive | inactive | inactive | inactive | inactive | inactive | 397 nM | EC50 ([5]; HCT-116, read-out: Viability EC50, primary screening): 428 nM
CCOC(=O)C1(c2ccccc2)CCN(CCC(C#N)(c2ccccc2)c2ccccc2)CC1 [Diphenoxylate hydrochloride] | 8230 nM | 6870 nM | 152% | 77.1% | inactive | inactive | inactive | inactive | inactive | inactive | inactive | inactive | inactive | inactive | 3160 nM | Viability efficacy, primary screening [4]: inactive
